Patent publication US7572606B1 (Nereus Pharmaceuticals, Inc., priority 2005, dated 2009)
Entries after “also recorded” stand apart in the source; their conditions may differ. Where two headings read alike, the source gives them in different places.

Key:
[1] = system: PANC-1; experiment: Cell growth inhibition, resazurin, 48 h; assay type: cell-based; conditions: Homo sapiens; PANC-1, 48 h drug exposure
[2] = system: Jurkat; experiment: Cytotoxicity against Jurkat cells; assay type: cell-based, human
[3] = system: NF-κB/Luc 293 cells; experiment: Viability of reporter cells, resazurin, 24 hr; assay type: cell-based, human; conditions: at the EC50 concentration of the luciferase assay
[4] = system: IκBα in HEK293 cells and NF-κB/Luc 293 reporter clone; experiment: Western blot of phosphorylated and total IκBα; assay type: cell-based, human; conditions: 50 and 500 nM, 1 hour pretreatment, TNF-α 30 minutes
Experimental: Endogenous protein levels were assessed in both HEK293 cells and the NF-κB/Luc 293 reporter clone.
Antibodies against total and phosphorylated forms of IκBα were used to determine the endogenous level of each protein and anti-Tubulin antibody was used to confirm equal loading of protein.

[5] = system: p21 and p27 in HEK293 cells and HEK293 NF-κB/Luciferase reporter clone; experiment: Western blot of cell cycle regulatory proteins; assay type: cell-based, human; conditions: various concentrations, preliminary results
Excerpt: The ubiquitin-proteasome pathway is an essential proteolytic system involved in cell cycle control by regulating the degradation of cyclins and cyclin-dependent kinase (Cdk) inhibitors such as p21 and p27. Pagano, et al., Science 269:682 (1995), Kisselev, et al., Chem Biol 8:739 (2001), King, et al., Science 274:1652 (1996). Furthermore, p21 and p27 protein levels are increased in the presence of proteasome inhibitors. Fukuchi, et al., Biochim Biophys Acta 1451:206 (1999), Takeuchi, et al., Jpn J Cancer Res 93:774 (2002).
The Western blots presented in FIG. 33 were reprobed using antibodies against p21 and p27 to determine the endogenous level of each protein and anti-Tubulin antibody was used to confirm equal loading of protein.

[6] = system: PARP in Jurkat cells; experiment: PARP cleavage, western blot; assay type: cell-based, human; conditions: 100 nM Salinosporamide A 2-24 hrs; […] nM Staurosporine 4 hrs
[7] = system: LeTx-induced cytotoxicity of RAW264.7 cells; experiment: cells; assay type: cell-based, murine
[8] = system: PARP and Pro-Caspase 3 in RPMI 8226 cells; experiment: PARP and Pro-Caspase 3 cleavage, western blot; assay type: cell-based, human; conditions: 100 nM for 0, 8 or 24 hours; varying concentrations for 8 hours
Experimental: Total protein lysates were made and 20 μg of the lysates were then resolved under reducing/denaturing conditions and blotted onto nitrocellulose. The blots were then probed with anti-PARP or anti-caspase 3 antibodies followed by stripping and reprobing with an anti-actin antibody.
25 μg of the lysates were then resolved under reducing/denaturing conditions and blotted onto nitrocellulose. The blots were then probed with anti-PARP or anti-caspase 3 antibodies followed by stripping and reprobing with an anti-actin antibody.

[9] = system: chymotrypsin-like proteasome activity in packed whole blood lysate; experiment: Whole blood proteasome activity after dosing (PWBL assay); assay type: in vivo, male Swiss-Webster mice; conditions: mice
Experimental: In brief, frozen whole blood samples were thawed on ice for one hour, and resuspended in 700 μL of ice cold 5 mM EDTA, pH 8.0 in order to lyse the cells by hypotonic shock. This represents approximately 2-3 times the volume of the packed whole blood cells. Lysis was allowed to proceed for one hour, and the cellular debris was removed by centrifugation at 14,000×g for 10 minutes. The supernatant (Packed Whole Blood Lysate, PWBL) was transferred to a fresh tube, and the pellet discarded. Protein concentration of the PWBL was determined by BCA assay (Pierce) using BSA as a standard.
Proteasome activity was determined by measuring the hydrolysis of a fluorogenic substrate specific for the chymotrypsin-like activity of proteasomes (suc-LLVY-AMC, Bachem Cat. I-1395). […] The rate of hydrolysis in this system is linear for at least one hour. The hydrolysis rate of each sample is then normalized to relative fluorescent units per milligram of protein (RFU/mg).
The vehicle control consisted of 2% DMSO in 10% solutol. […] Packed whole blood cells were collected by centrifugation, washed with PBS, and re-centrifuged. All samples were stored at −80° C. prior to the evaluation of the proteasome activity.
Male Swiss Webster mice (12/group weighing 20-25 g) were injected with LPS (2 mg/kg) by the i.p. route. […]

[10] = system: LPS-induced plasma TNF; experiment: Inhibition of in vivo LPS-induced TNF; design: species or system male Swiss Webster mice; conditions: 0.125 or […] i.v., 30 minutes post-LPS (2 mg/kg i.p.)
Experimental: The following methods outline the protocol design for these studies.
Male Swiss Webster mice (12/group weighing 20-25 g) were injected with LPS (2 mg/kg) by the i.p. route. […] Ninety minutes after LPS injection, the mice were anesthetized with Isoflurane and bled by cardiac puncture to obtain plasma. Remaining blood pellet was then resuspended in 500 μL of PBS to wash away residual serum proteins and centrifuged again. Supernatant was removed and blood pellet frozen for analysis of proteasome inhibition in packed whole blood lysate.
Animals were dosed i.v. with 4 ml/kg. A vehicle control solution was also prepared by making the same 1:160 dilution with 100% DMSO into 10% solutol solution giving a final concentration of 9.375% solutol in water and 0.625% DMSO. Measurements of plasma TNF were performed using the Biosource mTNF Cytoset kit (Biosource Intl., Camarillo, Calif.; catalog # CMC3014) according to manufacturer's instructions. Samples were diluted 1:60 for the assay.

[11] = system: VEGF-induced migration of multiple myeloma cells; experiment: Transwell migration assay; assay type: cell-based
Experimental: The compounds disclosed herein inhibit angiogenesis. […] The other compounds disclosed herein are tested in a transwell migration assay and inhibit migration.

[12] = system: HL-60(TB); conditions: Leukemia
[13] = system: RAW264.7 cells; conditions: 12 nM, compound alone
[14] = system: MM.1R and Dox-40 cell lines, patient-derived multiple myeloma cells
[15] = target: caspase-like (PGPH) activity of rabbit muscle 20S proteasome (Oryctolagus cuniculus, UniProt A0A5F9DQW2); experiment: In vitro inhibition of 20S proteasome, Z-LLE-AMC; conditions: read-out: EC50 Caspase-like (PGPH); purified rabbit 20S proteasome, Z-LLE-AMC
Chain of caspase-like (PGPH) activity of rabbit muscle 20S proteasome (A0A5F9DQW2 1-212): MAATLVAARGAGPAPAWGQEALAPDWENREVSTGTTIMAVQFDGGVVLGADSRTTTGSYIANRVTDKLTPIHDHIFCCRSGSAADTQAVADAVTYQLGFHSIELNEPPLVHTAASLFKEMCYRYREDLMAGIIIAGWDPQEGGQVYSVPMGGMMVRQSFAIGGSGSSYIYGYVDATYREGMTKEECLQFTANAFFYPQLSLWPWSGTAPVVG

`C[C@@]12OC(=O)[C@]1([C@@H](O)[C@@H]1C=CCCC1)NC(=O)[C@@H]2CCCl` [Formula II-16, Salinosporamide A] was tested, and the EC50 [1] was 60 nM, the EC50 ([2]; Homo sapiens, Jurkat) was 10 nM and the “% max cell kill” value ([2]; Jurkat cells) was 97%. The cell viability [3] was “did not affect cell viability”, the “total IκBα and phospho-IκBα level” value [4] was “reduced the degradation of total IκBα but also retained the phospho-IκBα level” and the “p21 and p27 protein levels” value [5] was “p21 and p27 protein levels were elevated”. The PARP cleavage [6] was “cleavage of PARP within the Jurkat cells in a time-dependent fashion”, the EC50 [7] was 3.6 nM and the cell-viability [7] was 82%. The “increase in the viability of LeTx-treated cells compared to LeTx treatment alone” value [7] was 10 fold, the EC50 ([7]; Mus musculus, RAW264.7) was less than 4 nM and the “cleavage of PARP and Pro-Caspase 3” value [8] was “cleavage of PARP and Pro-caspase 3 in a time-dependent manner; also recorded: dose-dependent cleavage of both PARP and Pro-Caspase 3”. The “proteasomal activity in PWBL” value ([9]; i.v. or oral, blood 90 min after administration) was “profound decrease in proteasomal activity in PWBL”, the “activity upon oral administration (PWBL proteasome)” value ([9]; oral) was “active upon oral administration” and the “reduction of LPS-induced plasma TNF levels” value [10] was “approximately 65%”. For the same molecule, the “VEGF-induced migration of multiple myeloma cells” value [11] was “blocked vascular endothelial growth-factor (VEGF)-induced migration of multiple myeloma cells”, the “Log10 G150” value [12] was less than -8.00 Molar and the “Log10 TGI” value [12] was -4.32 Molar. For the same molecule, the viability [13] was 96% and the “activity against drug resistant multiple myeloma” value [14] was “active against MM.1R and Doxorubicin-resistant Dox-40 cell lines”.

For `C[C@H]1C(=O)N[C@@]2([C@@H](O)[C@@H]3C=CCCC3)C(=O)O[C@@]12C` [Formula II-20], the EC50 [15] was 1420 nM.
